Measurements published in patent US20100204249A1, “SECRETORY PHOSPHOLIPASE A2 (SPLA2) INHIBITOR AND NIACIN DRUG COMPOSITIONS AND METHODS FOR TREATING CARDIOVASCULAR DISEASE AND DYSLIPIDEMIA” (priority 2009, published 2010).

What was measured:
sPLA2 = settings: cited from earlier work
[1] = test system: human subjects with stable CAD; test: Change in TG levels at eight weeks, A-002 and/or niacin drugs, subjects with stable CAD; settings: for Baseline Mean TG: before trial period; for Baseline Mean TG / Week 8 Mean TG: stable CAD; for Difference versus placebo (TG % change) / % change versus baseline (TG) / Week 8 Mean TG: week 8; for % change versus baseline (TG): ANCOVA subject-specific percent change from baseline; for Change from baseline (mean TG): week 8 versus baseline
From the text: (§1) 46 subjects from the above once-a-day and twice-a-day A-002 studies were identified as receiving niacin drugs before and during the trial period. 45 of these 46 subjects were also receiving one or more statins before and during the trial period. The niacin drugs included niacin, nicotinic acid, acipimox, ERN (Niaspan®), Niaspan® in combination with lovastatin (Advicor®), and/or Niaspan® in combination with simvastatin (Simcor®). Of the 46 niacin subjects, twelve were concomitantly administered placebo rather than A-002 (i.e., niacin drug only), four were administered 100 mg of A-002 daily, five were administered 200 mg of A-002 daily, five were administered 250 mg of A-002 daily, thirteen were administered 500 mg of A-002 daily, and seven were administered 1000 mg of A-002 daily.
(§2) The change from baseline HDL and TG levels at eight weeks was determined for each of the subjects receiving niacin drugs, and the percentage increase or decrease in these levels was determined using an analysis of covariance (ANCOVA) model that calculated subject-specific percent change from baseline.

[2] = test system: human subjects with stable CAD; settings: oral, once or twice a day, total daily 100-1000 mg, all dosages tested; 361 subjects; cited from earlier work
[3] = cited from earlier work
[4] = test system: human subjects with stable CAD; test: Change in HDL levels at eight weeks, A-002 and/or niacin drugs, subjects with stable CAD; settings: for Baseline Mean HDL: before trial period; for Baseline Mean HDL / Week 8 Mean HDL: stable CAD; for Difference versus placebo (HDL % change) / % change versus baseline (HDL) / Week 8 Mean HDL: week 8; for % change versus baseline (HDL): ANCOVA subject-specific percent change from baseline; for Change from baseline (mean HDL): week 8 versus baseline
From the text: as §1, §2

[5] = eight weeks, magnitude of decrease

CCc1c(C(=O)C(N)=O)c2c(OCC(=O)O)cccc2n1Cc1ccccc1 [A-001]
type of sPLA2 inhibition (sPLA2): competitive inhibitor

CCc1c(C(=O)C(N)=O)c2c(OCC(=O)OC)cccc2n1Cc1ccccc1 [A-002, [[3-(2-Amino-1,2-dioxoethyl)-2-ethyl-1-(phenylmethyl)-1H-indol-4-yl]oxy]acetic acid methyl ester]
Baseline Mean TG [1]: 165.83 mg/dL | Difference versus placebo (TG % change) [1]: −2.6% | % change versus baseline (TG) [1]: −3.7% | Week 8 Mean TG [1]: 159.04 mg/dL | Change from baseline (mean TG) [1]: -6.79 mg/dL | serum LDL, LDL particle, small LDL particle, oxidized LDL, total cholesterol, ApoB, TG, sPLA2, CRP, and IL-6 levels [2]: decrease | terminal half-life (t1/2) ([3]; in vivo): approximately ten | absorption and hydrolysis to the active A-001 molecule ([3]; prodrug): rapidly absorbed and hydrolyzed | Baseline Mean HDL [4]: 47.80 mg/dL | decrease in HDL versus baseline [4, 5]: 2.0% | Difference versus placebo (HDL % change) [4]: +0.3% | % change versus baseline (HDL) [4]: −2.0% | Week 8 Mean HDL [4]: 46.28 mg/dL | Change from baseline (mean HDL) [4]: -1.52 mg/dL

O=C(O)c1cccnc1 [Niacin, pyridine-3-carboxylic acid]
Baseline Mean TG [1]: 129.25 mg/dL | increase in TG versus placebo ([1]; eight weeks, magnitude of increase): 3.4% | Difference versus placebo (TG % change) [1]: +3.4% | % change versus baseline (TG) [1]: +9.7% | Week 8 Mean TG [1]: 133.42 mg/dL | Change from baseline (mean TG) [1]: +4.17 mg/dl | Baseline Mean HDL [4]: 50.67 mg/dL | decrease in HDL versus baseline [4, 5]: 6.2% | decrease in HDL versus placebo [4, 5]: 3.9% | Difference versus placebo (HDL % change) [4]: −3.9% | % change versus baseline (HDL) [4]: −6.2% | Week 8 Mean HDL [4]: 46.75 mg/dL | Change from baseline (mean HDL) [4]: -3.92 mg/dL
